Test results published in US8324265B2, “Heterocyclic compounds having type I 11β hydroxysteroid dehydrogenase inhibitory activity” (Shionogi & Co., Ltd., priority 2005, dated 2012).

Assays:
[1] = target: recombinant human 11β-HSD1 (Homo sapiens, UniProt P28845); assay: Enzyme activity assay on human 11β-HSD1 (HTRF); assay type: biochemical; conditions: recombinant human 11β-HSD1, 5μM cortisone as substrate, 2 hours at 37° C.; read-out: humanIC50
Method: Evaluation of 11β-HSD1 Inhibitors (Enzyme Activity Assay on Human 11β-HSD1)
Enzymatic activity for human 11β-HSD1 was determined in a 10 μl final volume of assay mixture containing 50 mM sodium phosphate buffer (pH 7.6), 1 mg/ml bovine serum albumin, 0.42 mg/ml NADPH, 1.26 mg/ml glucose-6-phosphate, glucose-6-phosphate dehydrogenase, test compound, recombinant human 11β-HSD1, and 5μM cortisone as substrate. The reaction was started with the addition of cortisone. After incubation for 2 hours at 37° C., 5μl of europium cryptate-labelled anti-cortisol antibody and 5μl of XL665-labeled cortisol were added. After further incubation for 2 hours at room temperature, the homogeneous time-resolved fluorescence (HTRF) signal was measured. The cortisol production was quantitated by a standard curve generated with several known concentrations of cortisol in each assay.
(§1) The amount of cortisol production without compounds was served as control, and the percent inhibition by test compound at each concentration was calculated. The IC50 value of the compound for 11β-HSD1 was obtained using the inhibition curve generated by plotting the percent inhibition versus the concentration of test compound.

[2] = target: recombinant mouse 11β-HSD1 (Mus musculus, UniProt P50172); assay: Enzyme activity assay on mouse 11β-HSD1 (HTRF); assay type: biochemical; conditions: recombinant mouse 11β-HSD1, 2μM 11-dehydrocorticosterone as substrate, 2 hours at 37° C.; read-out: mouseIC50
recombinant mouse 11β-HSD1, sequence (P50172 whole entry): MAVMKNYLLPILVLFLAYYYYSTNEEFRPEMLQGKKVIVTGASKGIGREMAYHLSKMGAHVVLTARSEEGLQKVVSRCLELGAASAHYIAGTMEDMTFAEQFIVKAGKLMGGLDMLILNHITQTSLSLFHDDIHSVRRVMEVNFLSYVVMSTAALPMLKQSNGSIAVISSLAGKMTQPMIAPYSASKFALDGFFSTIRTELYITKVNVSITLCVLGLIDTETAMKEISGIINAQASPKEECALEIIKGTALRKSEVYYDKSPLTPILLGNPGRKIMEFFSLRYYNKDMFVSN
Method: Evaluation of 11β-HSD1 Inhibitors (Enzyme Activity Assay on Mouse 11β-HSD1)
Enzymatic activity for mouse 11β-HSD1 activity was determined in a 10μl final volume of assay mixture containing 50 mM sodium phosphate buffer (pH 7.6), 1 mg/ml bovine serum albumin, 0.42 mg/ml NADPH, 1.26 mg/ml glucose-6-phosphate, glucose-6-phosphate dehydrogenase, test compound, recombinant mouse 11β-HSD1, and 2μM 11-dehydrocorticosterone as substrate. The reaction was started with the addition of 11-dehydrocorticosterone. After incubation for 2 hours at 37° C., 5μl of europium cryptate-labelled anti-cortisol antibody and 5μl of XL665-labeled cortisol were added. After further incubation for 2 hours at room temperature, the HTRF signal was measured. The corticosterone production was quantitated by a standard curve generated with several known concentrations of corticosterone in each assay.
as §1, with “corticosterone” for “cortisol”, “by” for “by test”

recombinant human 11β-HSD1, sequence (P28845 whole entry): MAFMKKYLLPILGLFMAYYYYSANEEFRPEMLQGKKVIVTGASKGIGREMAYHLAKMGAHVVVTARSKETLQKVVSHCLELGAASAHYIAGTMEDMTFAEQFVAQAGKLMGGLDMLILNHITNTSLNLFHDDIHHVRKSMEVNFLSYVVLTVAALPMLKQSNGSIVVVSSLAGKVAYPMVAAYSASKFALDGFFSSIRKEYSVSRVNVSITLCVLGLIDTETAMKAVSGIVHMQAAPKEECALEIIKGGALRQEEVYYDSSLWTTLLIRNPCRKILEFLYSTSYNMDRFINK

SMILES: Cn1ncc(C(=O)NC23CC4CC(CC(C4)C2)C3)c1OCc1ccccc1 [Compound A-1]
- IC50 [1]: 190 nM
- IC50 [2]: 5900 nM

SMILES: Cn1ncc(C(=O)NC23CC4CC(CC(C4)C2)C3)c1Sc1ccccc1 [Compound A-2]
- IC50 [1]: 270 nM
- IC50 [2]: 11000 nM

SMILES: Cn1ncc(C(=O)NC23CC4CC(CC(C4)C2)C3)c1Oc1ccccc1 [Compound A-3]
- IC50 [1]: 300 nM
- IC50 [2]: 24100 nM

SMILES: Cn1ncc(C(=O)NC2C3CC4CC(C3)CC2C4)c1OCc1ccccc1 (centres unmarked) [Compound A-4]
- IC50 [1]: 37 nM
- IC50 [2]: 1600 nM

SMILES: Cn1cc(C(=O)NC2C3CC4CC(C3)CC2C4)c(OCc2ccccc2)n1 (centres unmarked) [Compound A-5]
- IC50 [1]: 710 nM
- IC50 [2]: > 30000 nM

SMILES: Cn1ncc(C(=O)NC2C3CC4CC(C3)CC2C4)c1OC1CCCCC1 (centres unmarked) [Compound A-6]
- IC50 [1]: 8.3 nM
- IC50 [2]: 940 nM

SMILES: Cn1ncc(C(=O)NC2C3CC4CC(C3)CC2C4)c1OCCc1ccccc1 (centres unmarked) [Compound A-7]
- IC50 [1]: 18 nM
- IC50 [2]: 710 nM

SMILES: Cn1ncc(C(=O)NC2C3CC4CC(C3)CC2C4)c1OCC1CCC1 (centres unmarked) [Compound A-63]
- melting point: 84 to 85 °C

SMILES: Cn1ncc(C(=O)NC2C3CC4CC(C3)CC2C4)c1OCCc1ccsc1 (centres unmarked) [Compound A-64]
- melting point: 68 to 69 °C

SMILES: CCC(CC)COc1c(C(=O)NC2C3CC4CC(C3)CC2C4)cnn1C (centres unmarked) [Compound A-65]
- melting point: 89 to 90 °C
